# Results: ChEMBL document CHEMBL1201862, “PubChem BioAssay data set” (2004)
#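 Method: 48-hour compound exposure of cells in 96-well plates, five concentrations, linear interpolation of endpoints. GI50: concentration for 50% inhibition of growth.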 Activity calls are given as the source filed them. Cut-off read from the data, not from the text of the source: active = GI50 up to about 1.1 µM and inactive = higher.
# Assays:
# Assay in all cases: NCI-60 cell line screen, 48 h
# CCRF-CEM = system: CCRF-CEM
# HCT-116 = system: HCT-116
# SR = system: SR
# EKVX = system: EKVX
# MDA-MB-231 = system: MDA-MB-231
# T47D = system: T47D
# SK-OV-3 = system: SK-OV-3
# RPMI-8226 = system: RPMI-8226
# U-251 = system: U-251
# SF-268 = system: SF-268
# MDA-N = system: MDA-N
# SN12C = system: SN12C
# SK-MEL-28 = system: SK-MEL-28
# HL-60 = system: HL-60
# DU-145 = system: DU-145
# ACHN = system: ACHN
# MOLT-4 = system: MOLT-4
# SNB-75 = system: SNB-75
# A498 = system: A498
# MDA-MB-435 = system: MDA-MB-435
# UO-31 = system: UO-31
# UACC-62 = system: UACC-62
# K562 = system: K562
# HOP-62 = system: HOP-62
# HT-29 = system: HT-29
# MCF7 = system: MCF7
# NCI-H522 = system: NCI-H522
# SF-539 = system: SF-539
# Malme-3M = system: Malme-3M
# HCT-15 = system: HCT-15
# M14 = system: M14
# HCC 2998 = system: HCC 2998
# A549 = system: A549
# COLO 205 = system: COLO 205
# NCI-H226 = system: NCI-H226
# OVCAR-3 = system: OVCAR-3
# RXF 393 = system: RXF 393
# SK-MEL-5 = system: SK-MEL-5
# OVCAR-4 = system: OVCAR-4
# SF-295 = system: SF-295
# OVCAR-5 = system: OVCAR-5
# NCI-H23 = system: NCI-H23
# CAKI-1 = system: CAKI-1
# SW-620 = system: SW-620
# NCI/ADR-RES = system: NCI/ADR-RES
# SNB-19 = system: SNB-19
# HOP-92 = system: HOP-92
# IGROV-1 = system: IGROV-1
# PC-3 = system: PC-3
# KM12 = system: KM12
# TK-10 = system: TK-10
# OVCAR-8 = system: OVCAR-8
# 786-0 = system: 786-0
# SK-MEL-2 = system: SK-MEL-2
# NCI-H460 = system: NCI-H460
smiles,measurement,setting,value
CCOC(=O)C(NC(=O)CC)(C(F)(F)F)P(=O)(OCC)OCC (configuration not stated),GI50,CCRF-CEM,> 100 µM (inactive)
same,GI50,HCT-116,> 100 µM (inactive)
same,GI50,SR,> 100 µM (inactive)
same,GI50,EKVX,> 100 µM (inactive)
same,GI50,MDA-MB-231,> 100 µM (inactive)
same,GI50,T47D,> 100 µM (inactive)
same,GI50,SK-OV-3,> 100 µM (inactive)
same,GI50,RPMI-8226,> 100 µM (inactive)
same,GI50,U-251,> 100 µM (inactive)
same,GI50,SF-268,> 100 µM (inactive)
same,GI50,MDA-N,> 100 µM (inactive)
same,GI50,SN12C,> 100 µM (inactive)
same,GI50,SK-MEL-28,> 100 µM (inactive)
same,GI50,HL-60,> 100 µM (inactive)
same,GI50,DU-145,> 100 µM (inactive)
same,GI50,ACHN,> 100 µM (inactive)
same,GI50,MOLT-4,> 100 µM (inactive)
same,GI50,SNB-75,> 100 µM (inactive)
same,GI50,A498,> 100 µM (inactive)
same,GI50,MDA-MB-435,> 100 µM (inactive)
same,GI50,UO-31,> 100 µM (inactive)
same,GI50,UACC-62,> 100 µM (inactive)
same,GI50,K562,> 100 µM (inactive)
same,GI50,HOP-62,> 100 µM (inactive)
same,GI50,HT-29,> 100 µM (inactive)
same,GI50,MCF7,> 100 µM (inactive)
same,GI50,NCI-H522,> 100 µM (inactive)
same,GI50,SF-539,> 100 µM (inactive)
same,GI50,Malme-3M,> 100 µM (inactive)
same,GI50,HCT-15,> 100 µM
same,GI50,M14,> 100 µM (inactive)
same,GI50,HCC 2998,> 100 µM (inactive)
CCC1=[N+]([O-])C(C)(C)NC1(C)C,GI50,A549,> 10 µM (inactive)
same,GI50,COLO 205,> 10 µM (inactive)
same,GI50,NCI-H226,4.95 µM (inactive)
same,GI50,OVCAR-3,> 10 µM (inactive)
same,GI50,RXF 393,> 10 µM (inactive)
same,GI50,SK-MEL-5,> 10 µM (inactive)
same,GI50,HCT-116,> 10 µM (inactive)
same,GI50,OVCAR-4,> 10 µM (inactive)
same,GI50,EKVX,> 10 µM (inactive)
same,GI50,MDA-MB-231,> 10 µM (inactive)
same,GI50,SF-295,> 10 µM (inactive)
same,GI50,OVCAR-5,> 10 µM (inactive)
same,GI50,NCI-H23,> 10 µM (inactive)
same,GI50,U-251,> 10 µM (inactive)
same,GI50,SF-268,> 10 µM (inactive)
same,GI50,MDA-N,> 10 µM (inactive)
same,GI50,SN12C,> 10 µM (inactive)
same,GI50,SK-MEL-28,> 10 µM (inactive)
same,GI50,CAKI-1,> 10 µM (inactive)
same,GI50,SW-620,> 10 µM (inactive)
same,GI50,NCI/ADR-RES,> 10 µM (inactive)
same,GI50,DU-145,> 10 µM (inactive)
same,GI50,ACHN,> 10 µM (inactive)
same,GI50,SNB-75,> 10 µM (inactive)
same,GI50,MDA-MB-435,> 10 µM (inactive)
same,GI50,SNB-19,> 10 µM (inactive)
same,GI50,HOP-92,> 10 µM (inactive)
same,GI50,HT-29,> 10 µM (inactive)
same,GI50,IGROV-1,> 10 µM (inactive)
same,GI50,SF-539,> 10 µM (inactive)
same,GI50,HCT-15,> 10 µM
same,GI50,PC-3,> 10 µM (inactive)
same,GI50,M14,> 10 µM (inactive)
same,GI50,KM12,> 10 µM (inactive)
same,GI50,TK-10,> 10 µM (inactive)
same,GI50,OVCAR-8,> 10 µM (inactive)
COc1ccc(/C=C\c2cc(OC)c(OC)c(OC)c2)cc1OC(=O)C(N)CCC(=O)O (configuration not stated),GI50,A549,0.000944 µM (active)
same,GI50,NCI-H226,0.00123 µM (active)
same,GI50,HT-29,2.34 µM (inactive)
same,GI50,MCF7,0.00187 µM (active)
same,GI50,786-0,0.000792 µM (active)
C=CCNc1nc2c(N)ncnc2s1,GI50,A549,> 10 µM (inactive)
same,GI50,COLO 205,> 10 µM (inactive)
same,GI50,CCRF-CEM,> 10 µM (inactive)
same,GI50,RXF 393,> 10 µM (inactive)
same,GI50,SK-MEL-5,> 10 µM (inactive)
same,GI50,SK-MEL-2,> 10 µM (inactive)
same,GI50,NCI-H460,> 10 µM (inactive)
same,GI50,SR,> 10 µM (inactive)
same,GI50,OVCAR-4,> 10 µM (inactive)
same,GI50,T47D,> 10 µM (inactive)
same,GI50,OVCAR-5,> 10 µM (inactive)
same,GI50,NCI-H23,> 10 µM (inactive)
same,GI50,SK-OV-3,> 10 µM (inactive)
same,GI50,RPMI-8226,> 10 µM (inactive)
same,GI50,U-251,> 10 µM (inactive)
same,GI50,SF-268,> 10 µM (inactive)
same,GI50,SK-MEL-28,> 10 µM (inactive)
same,GI50,CAKI-1,> 10 µM (inactive)
same,GI50,SW-620,> 10 µM (inactive)
same,GI50,NCI/ADR-RES,> 10 µM (inactive)
same,GI50,HL-60,> 10 µM (inactive)
same,GI50,ACHN,> 10 µM (inactive)
same,GI50,MOLT-4,> 10 µM (inactive)
same,GI50,SNB-75,> 10 µM (inactive)
same,GI50,MDA-MB-435,> 10 µM (inactive)
same,GI50,UACC-62,> 10 µM (inactive)
same,GI50,K562,> 10 µM (inactive)
same,GI50,HOP-62,> 10 µM (inactive)
same,GI50,HOP-92,> 10 µM (inactive)
same,GI50,IGROV-1,> 10 µM (inactive)
same,GI50,MCF7,> 10 µM (inactive)
same,GI50,Malme-3M,> 10 µM (inactive)
same,GI50,M14,> 10 µM (inactive)
same,GI50,786-0,> 10 µM (inactive)
